The values below come from BindingDB's records for patent US20250170104 (Helmholtz-Zentrum Fur Infektionsforschung, 2025).

In this assay the target is Elastase (Pseudomonas aeruginosa (strain ATCC 15692 / DSM 22644 / CIP 104116 / JCM 14847 / LMG 12228 / 1C / PRS 101 / PAO1), UniProt P14756). The assay can be described thus: In Vitro LasB Activity Assay. The procedure:
Fluorescence intensity was measured for 60 min at 37° C. in black 384-well microtiter plates (Greiner BioOne, Kremsm nster, Austria) using a CLARIOstar microplate reader (BMG Labtech, Ortenberg, Germany) with an excitation wavelength of […] and an emission wavelength of 415±20 nm. The assay was performed in a final volume of 50 μL of assay buffer (50 mM Tris, pH 7.2, 2.5 mM CaCl2), 0.075% Pluronic F-127, 5% DMSO) containing LasB at a final concentration of […] 0.3 nM and the substrate at 150 μM. Before substrate addition, compounds were preincubated with the enzyme at 37° C. for 15 min. Experiments were performed in duplicates and repeated for at least two times. Blank controls without enzyme were performed. After blank subtraction, the slope of samples containing inhibitors (v) was divided by the slope of a simultaneously started uninhibited enzymatic reaction (v0).

Structures are written as SMILES.

Sequence of Elastase (P14756 whole entry): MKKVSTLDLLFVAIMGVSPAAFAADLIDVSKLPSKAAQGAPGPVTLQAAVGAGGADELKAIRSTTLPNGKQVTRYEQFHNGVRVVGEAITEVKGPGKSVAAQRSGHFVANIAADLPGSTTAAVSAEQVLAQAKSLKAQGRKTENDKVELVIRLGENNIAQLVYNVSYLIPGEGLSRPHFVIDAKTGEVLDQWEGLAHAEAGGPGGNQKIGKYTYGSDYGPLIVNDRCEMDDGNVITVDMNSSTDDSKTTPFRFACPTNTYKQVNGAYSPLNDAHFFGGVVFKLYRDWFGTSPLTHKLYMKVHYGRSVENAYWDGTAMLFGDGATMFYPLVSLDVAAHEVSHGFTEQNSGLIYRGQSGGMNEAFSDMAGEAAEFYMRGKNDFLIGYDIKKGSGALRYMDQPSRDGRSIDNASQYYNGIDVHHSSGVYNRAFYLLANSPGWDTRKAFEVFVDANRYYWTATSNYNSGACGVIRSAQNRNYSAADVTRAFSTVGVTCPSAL

As a reminder, the IC50 is the concentration at which inhibition is half-maximal. A high value points to weaker potency. Regarding `CC(C)CC(C(=O)NO)C(=O)Nc1ccc(Cn2cc(CNS(=O)(=O)c3ccc(C(=O)O)cc3)nn2)cc1` (stereo unspecified) [US20250170104, Compound 209], the IC50 worked out at 44.6 nM.
